In patent US9493484B2, “Heterocyclic compound and use thereof” (Takeda Pharmaceutical Company Limited, priority 2012, dated 2016):

Target: T1, GluR1 flip/stargazin (AMPA receptor) in CHO-K1/GluR1 flip/stargazin-expressing cells (Homo sapiens, UniProt P42261)
T1 construct: expressed in transfected cells; host or cells: CHO-K1
Experiment: AMPA receptor function-enhancing activity of compound, using calcium influx as an index
Assay type: cell-based
Conditions: test compound final concentration 30 μM with 3 mM glutamic acid, 100% = 3 mM glutamic acid + 300 μM cyclothiazide
From the text: Human GluR1 flip cDNA was amplified by PCR method using forward primer […] (SEQ ID NO: 1) and reverse primer […] (SEQ ID NO: 2) artificially synthesized using human brain-derived cDNA (BD Bioscience) as a template. The amplified product was digested with restriction enzymes EcoRI, NotI (TAKARA SHUZO CO. LTD.) and incorporated into the same site of pcDNA3.1(+) (Invitrogen) to construct pcDNA3.1(+)/human GluR1 flip gene. Human stargazin cDNA was amplified by PCR method using forward primer […] (SEQ ID NO: 3) and reverse primer […] (SEQ ID NO: 4) artificially synthesized using human hippocampus cDNA as a template. The amplified product was digested with restriction enzymes XhoI, BamHI (TAKARA SHUZO CO. LTD.) and incorporated into the same site of pcDNA3.1(−) (Invitrogen) to construct pcDNA3.1 Zeo(−)/human stargazing gene.
CHO-K1 cells passaged in a culture medium (Ham's F12 medium (Invitrogen) added with 10% inactivated fetal bovine serum (Morgate) and penicillin, streptomycin (Invitrogen)) were detached using 0.05% trypsin and 0.53 mM EDTA (Invitrogen) diluted with D-PBS(−). The detached cells were suspended in a culture medium, and recovered by centrifugation at 1,000 rpm. The recovered cells were re-suspended in D-PBS(−) and added into 0.4 cm electroporation cuvette (BioRad). pcDNA3.1(+)/human GluR1 flip gene (5 μg) and pcDNA3.1 Zeo(−)/human stargazin gene (15 μg) were added, and introduced into CHO-K1 cells under the conditions of […], […] and using Gene Pulser II (BioRad). The introduced cells were cultured overnight in a culture medium. The next day, using a selection medium (culture medium added with zeocin (Invitrogen) at 250 μg/mL), the cells were plated in a 96 well plate at 250 cells/well. The clones showing drug resistance were selected, and GluR1 flip/stargazin expression clones were selected by an assay method shown below using calcium influx as an index.
CHO-K1/GluR1 flip/stargazin-expressing cells were plated on a 96 well black bottom transparent plate (coaster) at 3×10^4 cells/well, and cultured for 2 days in a CO2 incubator (SANYO ELECTRIC Co. Ltd.) at 37° C. The medium of the cell plate was removed, a calcium indicator (Calcium4 Assay Kit, Molecular Device) dissolved in a liquid obtained by adding 1.25 mM probenecid (Invitrogen) to an assay buffer (140 mM NaCl, 5 mM KCl, 10 mM Glucose, 2 mM CaCl2, 1 mM MgCl2, 10 mM HEPES, pH 7.4, 0.1% BSA (SIGMA)) was added at 100 μL/well, and left in a CO2 incubator at 37° C. for 1 hr. A cell plate was set on CellLux (PerkinElmer), a mixture (50 μL) of 9 mM glutamic acid (final concentration 3 mM) diluted with an assay buffer and a test compound (test compound final concentration 30 μM) was added, and variation in the amount of fluorescence was measured for 2 min. The variation of fluorescence level of a well added with final concentration 3 mM glutamic acid and 300 μM cyclothiazide (TOCRIS, prepared from 100 mM dimethyl sulfoxide solution) was defined as 100%, the variation of fluorescence level of a well containing final concentration 3 mM glutamic acid and 0.33% dimethyl sulfoxide was defined as 0%, and the activity of the m compound was calculated by the following formula. activity (%)=(X−C)/(T−C)×100 T: variation of fluorescence level of well added with final concentration 3 mM of glutamic acid and 300 μM cyclothiazide C: variation of fluorescence level of well added with final concentration 3 mM of glutamic acid alone X: variation of fluorescence level of well added with final concentration 3 mM of glutamic acid and 30 μM test compound

T1 sequence (P42261 19-906 isoform P42261-2 limits assumed): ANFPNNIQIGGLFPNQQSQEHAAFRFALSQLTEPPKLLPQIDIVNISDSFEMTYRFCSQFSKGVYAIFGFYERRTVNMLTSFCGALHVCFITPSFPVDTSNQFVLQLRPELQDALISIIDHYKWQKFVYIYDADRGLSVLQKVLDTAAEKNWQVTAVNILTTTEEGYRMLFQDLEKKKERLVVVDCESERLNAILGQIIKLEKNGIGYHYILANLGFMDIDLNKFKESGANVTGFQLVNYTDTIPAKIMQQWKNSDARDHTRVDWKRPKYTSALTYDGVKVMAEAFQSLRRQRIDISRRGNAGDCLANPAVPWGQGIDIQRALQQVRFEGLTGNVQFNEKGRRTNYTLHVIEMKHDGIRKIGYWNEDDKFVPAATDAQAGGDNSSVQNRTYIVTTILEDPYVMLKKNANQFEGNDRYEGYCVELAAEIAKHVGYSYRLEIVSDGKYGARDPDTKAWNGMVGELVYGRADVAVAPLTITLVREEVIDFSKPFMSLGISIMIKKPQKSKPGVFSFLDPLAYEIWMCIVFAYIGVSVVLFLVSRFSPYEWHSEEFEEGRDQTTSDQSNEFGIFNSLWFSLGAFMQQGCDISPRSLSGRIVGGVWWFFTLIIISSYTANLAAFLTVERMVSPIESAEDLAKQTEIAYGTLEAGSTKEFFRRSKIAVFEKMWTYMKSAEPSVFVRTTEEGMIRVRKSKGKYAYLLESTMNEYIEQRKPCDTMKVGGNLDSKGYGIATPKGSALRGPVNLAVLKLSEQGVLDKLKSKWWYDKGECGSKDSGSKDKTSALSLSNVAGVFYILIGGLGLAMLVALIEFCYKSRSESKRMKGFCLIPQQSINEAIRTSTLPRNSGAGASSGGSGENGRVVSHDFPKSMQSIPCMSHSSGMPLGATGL
T1 sequence (Q9Y698 whole entry partner): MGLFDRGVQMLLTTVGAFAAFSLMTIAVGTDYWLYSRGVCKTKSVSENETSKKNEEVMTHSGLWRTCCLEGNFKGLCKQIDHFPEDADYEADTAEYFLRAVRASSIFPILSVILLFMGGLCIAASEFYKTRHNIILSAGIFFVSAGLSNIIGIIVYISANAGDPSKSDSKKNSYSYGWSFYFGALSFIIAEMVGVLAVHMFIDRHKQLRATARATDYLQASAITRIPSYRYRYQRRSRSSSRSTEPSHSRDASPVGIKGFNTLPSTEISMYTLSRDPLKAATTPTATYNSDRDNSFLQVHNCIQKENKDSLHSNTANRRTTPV

Compound	activity (%)
O=S1(=O)CCN2C(=N1)C1(c3ccc(OCC4CCCO4)cc3)CCC2CC1 (stereo not shown) [Example 38, 9-(4-(tetahydrofuran-2-ylmethoxy)phenyl)-3,4,6,7,8,9-hexahydro-6,9-ethanopyrido[2,1-c][1,2,4]thiadiazine 2,2-dioxide]	87
O=S1(=O)CCN2C(=N1)C1(c3ccc(OCc4cccc(Cl)c4)cc3)CCC2CC1 [Example 30, 9-(4-((3-chlorobenzyl)oxy)phenyl)-3,4,6,7,8,9-hexahydro-6,9-ethanopyrido[2,1-c][1,2,4]thiadiazine 2,2-dioxide]	22
N#Cc1cccc(Oc2ccc(C34CCC(CC3)N3CCS(=O)(=O)N=C34)cc2)c1 [Example 16, 3-(4-(2,2-dioxido-3,4,7,8-tetrahydro-6,9-ethanopyrido[2,1-c][1,2,4]thiadiazin-9(6H)-yl)phenoxy)benzonitrile]	87
CC(F)(F)c1cccc(Oc2ccc(C34CCC(CC3)N3CCS(=O)(=O)N=C34)cc2)c1 [Example 2, 9-(4-(3-(1,1-difluoroethyl)phenoxy)phenyl)-3,4,6,7,8,9-hexahydro-6,9-ethanopyrido[2,1-c][1,2,4]thiadiazine 2,2-dioxide]	74
CC(C)COc1ccc(C23CCC(CC2)N2CCS(=O)(=O)N=C23)cc1 [Example 28, 9-(4-isobutoxyphenyl)-3,4,6,7,8,9-hexahydro-6,9-ethanopyrido[2,1-c][1,2,4]thiadiazine 2,2-dioxide]	91

Results, then the compound that gave them:

activity (%)	Compound
87	Cc1ccc(Oc2ccc(C34CCC(CC3)N3CCS(=O)(=O)N=C34)cc2)cc1C#N [Example 47, 5-(4-(2,2-dioxido-3,4,7,8-tetrahydro-6,9-ethanopyrido[2,1-c][1,2,4]thiadiazin-9(6H)-yl)phenoxy)-2-methylbenzonitrile]
92	O=S1(=O)CCN2C(=N1)C1(c3ccc(Oc4cc(C(F)(F)F)ccn4)cc3)CCC2CC1 [Example 15, 9-(4-((4-(trifluoromethyl)pyridin-2-yl)oxy)phenyl)-3,4,6,7,8,9-hexahydro-6,9-ethanopyrido[2,1-c][1,2,4]thiadiazine 2,2-dioxide]
61	O=S1(=O)CCN2C(=N1)C1(c3ccc(Oc4ncccn4)cc3)CCC2CC1 [Example 23, 9-(4-(pyrimidin-2-yloxy)phenyl)-3,4,6,7,8,9-hexahydro-6,9-ethanopyrido[2,1-c][1,2,4]thiadiazine 2,2-dioxide]
77	O=S1(=O)CCN2CCCN(c3ccc(Oc4ccc(Cl)cc4)cc3)C2=N1 [Example 45, 9-(4-(4-chlorophenoxy)phenyl)-3,4,6,7,8,9-hexahydropyrimido[2,1-c][1,2,4]thiadiazine 2,2-dioxide]
26	O=S1(=O)CCN2C(=N1)C1(c3ccc(Oc4ccc(Cl)cc4)cc3)CCC2CC1 [Example 1, 9-(4-(4-chlorophenoxy)phenyl)-3,4,6,7,8,9-hexahydro-6,9-ethanopyrido[2,1-c][1,2,4]thiadiazine 2,2-dioxide]
